Assay results published in PMC11206290, “Study of the Lipophilicity and ADMET Parameters of New Anticancer Diquinothiazines with Pharmacophore Substituents” (Pharmaceuticals, 2024).

How the values were obtained:
[1] = RP-TLC lipophilicity (RP-18 plates, acetone–TRIS buffer pH 7.4); conditions: for C0: C0 = −RM0/b; for RM0: RP-18, acetone–TRIS buffer pH 7.4, extrapolated to zero acetone concentration; for b / -b: slope of RM = RM0 + bC; for b: compounds 1–15; for -b: standards I–V
Description: (§1) RP-18 plates were used as the stationary phase, while organic modifiers containing acetone were used as the mobile phase. The linear relationship between RM0 and acetone concentration was determined on the basis of Equation (2) (Table 2). In addition to this, thanks to the relationship observed between RM0 and the slope of these linear plots (b), the lipophilicity parameter C0 was also determined (Table 2).
(§2) All chromatographic experiments were performed on a silica gel 60 RP-18 F254S (10 cm × 10 cm) RP-TLC plate (Merck, Darmstadt, Germany). The mobile phase was prepared by mixing the respective amount of aqueous TRIS (tris(hydroxymethyl)aminomethane) buffer, pH = 7.4 (ionic strength 0.2 M), to meet physiological conditions and acetone in a range from 50 to 80% (v/v) in increments of 5%. […] Before plate development, the chromatographic chambers were saturated with the mobile phase for 0.5 h. […] Each chromatographic experiment was run in triplicate, and then mean values of the retardation factor, i.e., RF values, were used to determine the RMW values of the compounds.
(§3) Next, the chromatographic data in the form of RM0 and coefficient b were used to calculate the lipophilicity parameter C0 [56] from the following Equation (3):(3) C0=−RM0/b

[2] = physchem
Description: as §1, §2, §3

[3] = system: lung cancer A549 cell line; set-up: method as in PMID 30981160; conditions: A549 cell line ref 24; cited from earlier work
[4] = system: BEAS-2B cells; set-up: method as in PMID 36014495; conditions: BEAS-2B cells at IC50 doses against A549 or H1299 cells ref 25; cited from earlier work
[5] = system: human lung carcinoma A549; set-up: method as in PMID 36014495; conditions: A549 ref 25; cited from earlier work
[6] = system: NHDF cells; set-up: method as in PMID 36014495; conditions: NHDF cells at IC50 doses against A549 or H1299 cells ref 25; cited from earlier work
[7] = system: non-small lung carcinoma H1299; set-up: method as in PMID 36014495; conditions: H1299 ref 25; cited from earlier work
[8] = system: BCL-2 expression; set-up: method as in PMID 30981160; conditions: RT-QPCR, A549 and SNB-19 ref 24; cited from earlier work
[9] = system: glioblastoma SNB-19 cell line; set-up: method as in PMID 30981160; conditions: SNB-19 cell line ref 24; cited from earlier work
[10] = system: BAX expression; set-up: method as in PMID 30981160; conditions: RT-QPCR, cancer cell lines ref 24; cited from earlier work

C0 [1] | RM0 [1] | b [1] | chromatographic logP [2] | SMILES | other results
0.7233 | 3.45 | −4.77 | 4.64 | CCN(CC)CCN1c2cnc3ccccc3c2Sc2cc3ccccc3nc21 [Compound 1, 7-(2'-Diethylaminoethyl)diquino[3,2-b;3 ',4'-e]thiazine] | 
0.7359 | 3.01 | −4.09 | 4.08 | CN(C)CCCN1c2cnc3ccccc3c2Sc2cc3ccccc3nc21 [Compound 2, 7-(3'-Dimethylaminopropyl)diquino[3,2-b;3 ',4'-e]thiazine] | IC50 [3]: 300 nM; Lethal effect [4]: weak lethal effect; In vitro anticancer activity [5]: significant in vitro anticancer activity; Lethal effect [6]: weak lethal effect; In vitro anticancer activity [7]: significant in vitro anticancer activity
0.7210 | 3.05 | −4.23 |  | c1ccc2nc3c(cc2c1)Sc1c(cnc2ccccc12)N3CCN1CCCC1 [Compound 3, 7-(1'-Pyrolidinylethyl)diquino[3,2-b;3 ',4'-e]thiazine] | 
0.7117 | 3.48 | −4.89 | 4.68 | c1ccc2nc3c(cc2c1)Sc1c(cnc2ccccc12)N3CCN1CCCCC1 [Compound 4, 7-(1'-Piperidinylethyl)diquino[3,2-b;3 ',4'-e]thiazine] | 
0.7082 | 3.64 | −5.14 | 4.89 | CN1CCCCC1CCN1c2cnc3ccccc3c2Sc2cc3ccccc3nc21 (stereo not drawn) [Compound 5, 7-(1'-M ethyl-2 '-piperydinylethyl)diquino[3,2-b;3 ',4'-e]thiazine] | 
0.7588 | 3.68 | −4.85 | 4.94 | CCN(CC)CCN1c2ccc3ncccc3c2Sc2cc3ccccc3nc21 [Compound 6, 7-(2'-Diethylaminoethyl)diquino[3,2-b;6 ',5'-e]thiazine] | 
0.7627 | 3.31 | −4.34 | 4.46 | CN(C)CCCN1c2ccc3ncccc3c2Sc2cc3ccccc3nc21 [Compound 7, 7-(3'-Dimethylaminopropyl)diquino[3,2-b;6 ',5'-e]thiazine] | 
0.7565 | 3.48 | −4.60 |  | c1ccc2nc3c(cc2c1)Sc1c(ccc2ncccc12)N3CCN1CCCC1 [Compound 8, 7-(1'-Pyrolidinylethyl)diquino[3,2-b;6 ',5'-e]thiazine] | Expression of BCL-2 [8]: markedly reduced; IC50 [9]: 300 nM; Expression of BAX [10]: markedly reduced
0.7562 | 3.69 | −4.88 | 4.95 | c1ccc2nc3c(cc2c1)Sc1c(ccc2ncccc12)N3CCN1CCCCC1 [Compound 9, 7-(1'-Piperidinylethyl)diquino[3,2-b;6 ',5'-e]thiazine] | 
0.7599 | 3.83 | −5.04 | 5.13 | CN1CCCCC1CCN1c2ccc3ncccc3c2Sc2cc3ccccc3nc21 (stereo not drawn) [Compound 10, 7-(1'-M ethyl-2 '-piperydinylethyl)diquino[3,2-b;6 ',5'-e]thiazine] | 
0.7579 | 3.60 | −4.75 | 4.84 | CCN(CC)CCN1c2nc3ccccc3cc2Sc2ccc3cccnc3c21 [Compound 11, 14-(2'-Diethylaminoethyl)diquino[3,2-b;8 ',7'-e]thiazine] | 
0.7458 | 3.17 | −4.25 | 4.28 | CN(C)CCCN1c2nc3ccccc3cc2Sc2ccc3cccnc3c21 [Compound 12, 14-(3'-Dimethylaminopropyl)diquino[3,2-b;8 ',7'-e]thiazine] | 
0.7672 | 3.23 | −4.21 | 4.36 | c1ccc2nc3c(cc2c1)Sc1ccc2cccnc2c1N3CCN1CCCC1 [Compound 13, 14-(1'-Pyrolidinylethyl)diquino[3,2-b;8 ',7'-e]thiazine] | 
0.7697 | 3.61 | −4.69 | 4.85 | c1ccc2nc3c(cc2c1)Sc1ccc2cccnc2c1N3CCN1CCCCC1 [Compound 14, 14-(1'-Piperidinylethyl)diquino[3,2-b;8 ',7'-e]thiazine] | 
0.7625 | 3.82 | −5.01 | 5.12 | CN1CCCCC1CCN1c2nc3ccccc3cc2Sc2ccc3cccnc3c21 (stereo not drawn) [Compound 15, 14-(1'-M ethyl-2 '-piperydinylethyl)diquino[3,2-b;8 ',7'-e]thiazine] | 
 | 0.78 |  |  | CC(=O)Nc1ccccc1 [Standard I, acetanilide, reference compound] | 
 | 3.33 |  |  | c1ccc2cc3ccccc3cc2c1 [Standard IV, anthracene, reference compound] | -b [1]: 0.0412

SMILES | C0 [1] | RM0 [1] | b [1] | chromatographic logP [2] | other results
O=C(O)c1ccccc1 [Standard II, benzoic acid, reference compound] |  | 1.16 |  |  | -b [1]: 0.0247
Clc1ccc(C(c2ccc(Cl)cc2)C(Cl)(Cl)Cl)cc1 [Standard V, p,p′-DDT, reference compound] |  | 4.69 |  |  | 
